According to US20030232860A1, “Medicine comprising dicyanopyridine derivative” (priority 2000, published 2003):
Counter-ions that a name gives are not always drawn.

Structure (SMILES) | melting point
COc1nc(N)c(C#N)c(-c2ccc(CN)cc2)c1C#N.Cl | > 300 °C
COc1nc(N)c(C#N)c(C2CCCNC2)c1C#N (stereo not drawn) | 176 to 178 °C
CSc1nc(N)c(C#N)c(-c2cccc(N)c2)c1C#N.Cl | 277 to 278 °C
Cl.Cl.N#Cc1c(NCCN)nc(NCCN)c(C#N)c1-c1ccccc1 | > 280 °C
Cl.Cl.N#Cc1c(N)nc(Sc2cccnc2)c(C#N)c1-c1cccc(N)c1 | 285 to 288 °C (dec.)
CN(C)c1cccc(-c2c(C#N)c(N)nc(SCc3cccnc3)c2C#N)c1.Cl.Cl | 243 to 245 °C
COc1nc(N(C(=O)Oc2ccccc2)C(=O)Oc2ccccc2)c(C#N)c(-c2ccccc2F)c1C#N | 156 to 158 °C
CSc1nc(N)c(C#N)c(-c2c[nH]cn2)c1C#N (as salt: HCl) (hydrate or solvate) [Example 82] | 272 to 273 °C (dec.)
COc1nc(N)c(C#N)c(-c2ccnc(N)n2)c1C#N (as salt: HCl) (hydrate or solvate) [Example 174] | 80 °C (dec.)
N#Cc1c(N)nc(OCc2cccnc2)c(C#N)c1-c1ccccc1 (as salt: HCl) (hydrate or solvate) [Example 208, 2-amino-4-phenyl-6-(pyridin-3-ylmethoxy)pyridine-3,5-dicarbonitrile] | 174 to 175 °C
COc1nc(N)c(C#N)c(-c2ccc3cccnc3c2)c1C#N (as salt: HCl) [Example 172, 2-amino-6-methoxy-4-quinolin-7-ylpyridine-3,5-dicarbonitrile] | 245 to 254 °C (dec.)
COc1nc(N)c(C#N)c(-c2ccc3nc[nH]c3c2)c1C#N (as salt: HCl) [Example 173] | 299 to 300 °C
N#Cc1c(N)nc(Oc2ccccc2CN)c(C#N)c1-c1ccccc1 (as salt: HCl) [Example 201, 2-amino-6-(2-aminomethylphenoxy)-4-phenylpyridine-3,5-dicarbonitrile] | > 300 °C
N#Cc1c(N)nc(N2CCNCC2)c(C#N)c1-c1ccccc1 (as salt: HCl) [Example 210] | 260 to 263 °C (dec.)
COc1nc(N)c(C#N)c(-c2cnc(N)s2)c1C#N (as salt: chloride) [Example 67, 2-amino-4-(2-aminothiazol-5-yl)-6-methoxypyridine-3,5-dicarbonitrile mono hydro chloride] | 240 to 242 °C (dec.)
COc1nc(N)c(C#N)c(C2CCNCC2)c1C#N (as salt: hydrochloride) (hydrate or solvate) | 240 °C (dec.)
N#Cc1c(N)nc(OCCOC(=O)[C@@H](N)Cc2ccccc2)c(C#N)c1-c1ccccc1 (as salt: hydrochloride) (hydrate or solvate) [Example 15, 2-[(2-amino-3,5-dicyano-4-phenylpyridin-6-yl)oxy]ethyl (S)-2-amino-3-phenylpropanoate monohydrochloride monohydrate] | 161 to 162 °C
COc1nc(N)c(C#N)c(-c2ccc3cc[nH]c3c2)c1C#N (as salt: salt) (hydrate or solvate) [Example 171] | 270 to 272 °C
CCN(CC)CCOc1ccc(-c2c(C#N)c(N)nc(OC)c2C#N)cc1.Cl (hydrate or solvate) | 132 to 133 °C
COc1nc(N)c(C#N)c(-c2ccc(N)cc2)c1C#N.Cl.O (hydrate or solvate) [Example 20, 2-amino-(4-aminophenyl)-6-methoxypyridine-3,5-dicarbonitrile monohydrochloride monohydrate] | > 300 °C
COCC(=O)Nc1nc(OCC(F)F)c(C#N)c(-c2ccccc2F)c1C#N (hydrate or solvate) [Example 61, N-[3,5-dicyano-6-(2,2-difluoroethoxy)-4-(2-fluorophenyl)pyridin-2-yl]-2-metho xyacetamide] | 108 to 109 °C
COc1nc(N)c(C#N)c(-c2ccccc2)c1C#N [Example 2] | 251 to 252 °C
CSc1nc(N)c(C#N)c(-c2ccsc2)c1C#N [Example 7, 2-amino-6-methylsulfanyl-4-(3-thienyl)pyridine-3,5-dicarbonitrile] | 241 to 243 °C
N#Cc1c(N)nc(Cl)c(C#N)c1-c1ccccc1 [Example 9, 2-amino-6-chloro-4-phenylpyridine-3,5-dicarbonitrile] | > 300 °C
N#Cc1c(N)nc(OCCO)c(C#N)c1-c1ccccc1 [Example 13, 2-amino-6-(2-hydroxyethoxy)-4-phenylpyridine-3,5-dicarbonitrile] | 212 to 214 °C
CC(C)Oc1nc(N)c(C#N)c(-c2ccccc2F)c1C#N [Example 18, 2-amino-4-(2-fluorophenyl)-6-isopropoxypyridine-3,5-dicarbonitrile] | 161 to 162 °C

Structure (SMILES) | melting point
COc1nc(NC(C)=O)c(C#N)c(-c2cccs2)c1C#N [Example 19, N-(3,5-dicyano-6-methoxy-4-thiophen-2-ylpyridin-2-yl)acetamide] | 230 to 233 °C
N#Cc1c(N)nc(O)c(C#N)c1-c1ccc(N)cc1 [Example 21, 2-amino-(4-aminophenyl)-6-hydroxypyridine-3,5-dicarbonitrile] | > 300 °C
CSc1nc(O)c(C#N)c(-c2cccs2)c1C#N [Example 23, 2-hydroxy-6-methylsulfanyl-4-thiophen-2-ylpyridine-3,5-dicarbonitrile] | 245 °C (dec.)
CSc1nc(Br)c(C#N)c(-c2cccs2)c1C#N [Example 24, 2-bromo-6-methylsulfanyl-4-thiophen-2-ylpyridine-3,5-dicarbonitrile] | 169 to 171 °C
COc1nc(O)c(C#N)c(-c2ccccc2)c1C#N [Example 25, 2-hydroxy-6-methoxy-4-phenylpyridine-3,5-dicarbonitrile] | 255 to 257 °C (dec.)
COc1ncc(C#N)c(-c2ccccc2)c1C#N [Example 26, 2-methoxy-4-phenylylpyridine-3,5-dicarbonitrile] | 148 to 149 °C
CSc1nc(N)c(C#N)c(-c2ccc(C(=O)O)cc2)c1C#N [Example 29, 4-(2-amino-3,5-dicyano-6-methylsulfanylpyridin-4-yl)benzoic acid] | 288 to 290 °C
N#Cc1c(N)nc(Oc2cccc(C(=O)O)c2)c(C#N)c1-c1ccccc1 [Example 31, 3-[(6-amino-3,5-dicyano-4-phenylpyridin-2-yl)oxy]benzoic acid] | 284 to 286 °C
COc1nc(OCCO)c(C#N)c(-c2ccccc2)c1C#N [Example 33, 2-(2-hydroxyethoxy)-6-methoxy-4-phenylpyridine-3,5-dicarbonitrile] | 170 to 172 °C
COc1nc(N)c(C#N)c(-c2cccc(CO)c2)c1C#N [Example 34, 2-amino-4-[3-(hydroxymethyl)phenyl]-6-methoxypyridine-3,5-dicarbonitrile] | 218.5 to 219.5 °C
COc1nc(N)c(C#N)c(-c2ccc(NS(C)(=O)=O)cc2)c1C#N [Example 38, N-[4-(2-amino-3,5-dicyano-6-methoxypyridin-4-yl)phenyl]methanesulfonamide] | 265 to 266 °C
N#Cc1c(N)nc(N)c(C#N)c1-c1ccccc1 [Example 41, 2,6-diamino-4-phenylpyridine-3,5-dicarbonitrile] | > 300 °C
COc1nc(F)c(C#N)c(-c2ccccc2)c1C#N [Example 43, 2-fluoro-6-methoxy-4-phenylpyridine-3,5-dicarbonitrile] | 156 to 158 °C
CS(=O)(=O)c1nc(N)c(C#N)c(-c2cccs2)c1C#N [Example 44, 2-amino-6-methanesulfonyl-4-thiophen-2-ylpyridine-3,5-dicarbonitrile] | 233 to 235 °C
CSc1nc(NS(C)(=O)=O)c(C#N)c(-c2ccsc2)c1C#N [Example 45, N-(3,5-dicyano-6-methylsulfanyl-4-thiophen-3-ylpyridin-2-yl)methanesulfonamide] | > 250 °C
COc1nc(N)c(C#N)c(-c2cccc(C#N)c2)c1C#N [Example 49, 2-amino-4-(3-cyanophenyl)-6-methoxypyridine-3,5-dicarbonitrile] | 298 to 299 °C
COc1nc(N(C(C)=O)C(C)=O)c(C#N)c(-c2ccccc2F)c1C#N [Example 59, 2-diacetylamino-4-(2-fluorophenyl)-6-methoxypyridine-3,5-dicarbonitrile] | 137 to 138 °C
COCC(=O)Nc1nc(OC)c(C#N)c(-c2ccccc2F)c1C#N [Example 60, N-[3,5-dicyano-4-(2-fluorophenyl)-6-methoxypyridin-2-yl]-2-methoxyacetamide] | 168 to 169 °C
COCC(=O)Nc1nc(OC)c(C#N)c(-c2c(F)cccc2F)c1C#N [Example 62, N-[3,5-dicyano-4-(2,6-difluorophenyl)-6-methoxypyridin-2-yl]-2-methoxyacetamide] | 181 to 182 °C
COc1nc(NC(C)=O)c(C#N)c(-c2c(F)cccc2F)c1C#N [Example 63, N-[3,5-dicyano-4-(2,6-difluorophenyl)-6-methoxypyridin-2-yl]acetamide] | 200 to 201 °C
COc1nc(N)c(C#N)c(-c2cc[nH]c2)c1C#N [Example 66, 2-amino-6-methoxy-4-(1H-pyrrol-3-yl)pyridine-3,5-dicarbonitrile] | 235 to 237 °C
COc1nc(NC(=O)C(F)(F)F)c(C#N)c(-c2ccccc2F)c1C#N [Example 69, N-[3,5-dicyano-4-(2-fluorophenyl)-6-methoxypyridin-2-yl]-2,2,2-trifluoroacetamide] | 142 to 145 °C
COc1nc(NC(=O)C2CC2)c(C#N)c(-c2ccccc2F)c1C#N [Example 70, N-[3,5-dicyano-4-(2-fluorophenyl)-6-methoxypyridin-2-yl] cyclopropanecarboxamide] | 203 to 204 °C
COc1nc(NC(=O)N(C)C)c(C#N)c(-c2ccccc2F)c1C#N [Example 71, 3-[3,5-dicyano-4-(2-fluorophenyl)-6-methoxypyridin-2-yl]-1,1-dimethylurea] | 82 to 86 °C
CCC(=O)N(C(=O)CC)c1nc(OC)c(C#N)c(-c2ccccc2F)c1C#N [Example 73, 2-dipropanoylamino-4-(2-fluorophenyl)-6-methoxypyridine-3,5-dicarbonitrile] | 160 to 161 °C
